Source: PubChem BioAssay AID2060908 (Molecular Pharmacology Branch, DTP, NCI, 2025)
pIC50: −log10 of the molar value.

Test system: 186277-243-T-J2-PDC complex spheroids, viability
Assay: Anticancer human tumor 186277-243-T-J2-PDC patient-derived colon adenocarcinoma cell line growth inhibition [RAS]
Conditions: for pIC50: curve of first compound; for viability, T/C: stronger effect = lower value
In short: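 Agents were tested in combination matrices in half-log decrements from a top concentration at or near clinical Cmax (10 microM if undetermined). Targets were multi-cell spheroids of tumour lines plus HUVEC and MSC stromal cells.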

[1] = second compound 0.000949 µM, first compound 0.00316 µM
[2] = second compound 0.000949 µM, first compound 0.01 µM
[3] = second compound 0.000949 µM, first compound 0.0316 µM
[4] = second compound 0.000949 µM, first compound 0.1 µM
[5] = second compound 0.000949 µM, first compound 0.316 µM
[6] = second compound 0.000949 µM, first compound 1 µM
[7] = second compound 0.003 µM, first compound 0.00316 µM
[8] = second compound 0.003 µM, first compound 0.01 µM
[9] = second compound 0.003 µM, first compound 0.0316 µM
[10] = second compound 0.003 µM, first compound 0.1 µM
[11] = second compound 0.003 µM, first compound 0.316 µM
[12] = second compound 0.003 µM, first compound 1 µM
[13] = second compound 0.00949 µM, first compound 0.00316 µM
[14] = second compound 0.00949 µM, first compound 0.01 µM
[15] = second compound 0.00949 µM, first compound 0.0316 µM
[16] = second compound 0.00949 µM, first compound 0.1 µM
[17] = second compound 0.00949 µM, first compound 0.316 µM
[18] = second compound 0.00949 µM, first compound 1 µM
[19] = second compound 0.03 µM, first compound 0.00316 µM
[20] = second compound 0.03 µM, first compound 0.01 µM
[21] = second compound 0.03 µM, first compound 0.0316 µM
[22] = second compound 0.03 µM, first compound 0.1 µM
[23] = second compound 0.03 µM, first compound 0.316 µM
[24] = second compound 0.03 µM, first compound 1 µM
[25] = second compound 0.0949 µM, first compound 0.00316 µM
[26] = second compound 0.0949 µM, first compound 0.01 µM
[27] = second compound 0.0949 µM, first compound 0.0316 µM
[28] = second compound 0.0949 µM, first compound 0.1 µM
[29] = second compound 0.0949 µM, first compound 0.316 µM
[30] = second compound 0.0949 µM, first compound 1 µM
[31] = second compound 0.3 µM, first compound 0.00316 µM
[32] = second compound 0.3 µM, first compound 0.01 µM
[33] = second compound 0.3 µM, first compound 0.0316 µM
[34] = second compound 0.3 µM, first compound 0.1 µM
[35] = second compound 0.3 µM, first compound 0.316 µM
[36] = second compound 0.3 µM, first compound 1 µM
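Note: spheroids exposed to compounds for 7 days before viability read.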

`C=CC(=O)Nc1cc(Nc2nccc(-c3cn(C)c4ccccc34)n2)c(OC)cc1N(C)CCN(C)C` + CCn1c(-c2cc(N3CCN(C)CC3)cnc2C(C)OC)c2c3cc(ccc31)-c1csc(n1)CC(NC(=O)C1CC1C)C(=O)N1CCCC(N1)C(=O)OCC(C)(C)C2 gave a pIC50 (second compound 0.000949 µM) of less than 6.00, a pIC50 (second compound 0.003 µM) of 6.46 and a pIC50 (second compound 0.00949 µM) of 7.96. For the same compound, the pIC50 (second compound 0.03 µM) was greater than 8.50, the pIC50 (second compound 0.0949 µM) was greater than 8.50 and the pIC50 (second compound 0.3 µM) was greater than 8.50. It also gave a viability, T/C [1] of 103%, a viability, T/C [2] of 112% and a viability, T/C [3] of 107%. It also gave a viability, T/C [4] of 115%, a viability, T/C [5] of 85.2% and a viability, T/C [6] of 52.6%. The viability, T/C [7] was 106%, the viability, T/C [8] was 104% and the viability, T/C [9] was 91.8%. The viability, T/C [10] was 81.6%, the viability, T/C [11] was 52.3% and the viability, T/C [12] was 15.8%. It also gave a viability, T/C [13] of 58.3%, a viability, T/C [14] of 48.7% and a viability, T/C [15] of 40.6%. The viability, T/C [16] was 28.8%, the viability, T/C [17] was 10.8% and the viability, T/C [18] was 5.19%. The viability, T/C [19] was 18.4%, the viability, T/C [20] was 15.4% and the viability, T/C [21] was 12.1%. It also gave a viability, T/C [22] of 9.43%, a viability, T/C [23] of 5.63% and a viability, T/C [24] of 4.11%. The viability, T/C [25] was 7.42%, the viability, T/C [26] was 6.89% and the viability, T/C [27] was 5.88%. The viability, T/C [28] was 4.8%, the viability, T/C [29] was 4.22% and the viability, T/C [30] was 2.72%. It also gave a viability, T/C [31] of 6%, a viability, T/C [32] of 6% and a viability, T/C [33] of 4.87%. For the same compound, the viability, T/C [34] was 4.47%, the viability, T/C [35] was 4.17% and the viability, T/C [36] was 2.68%.

`CC(Nc1ccc2c(c1)OCCn1cc(N3C(=O)OCC3C(F)F)nc1-2)C(N)=O` (stereo unspecified) + CCn1c(-c2cc(N3CCN(C)CC3)cnc2C(C)OC)c2c3cc(ccc31)-c1csc(n1)CC(NC(=O)C1CC1C)C(=O)N1CCCC(N1)C(=O)OCC(C)(C)C2 was tested, and the pIC50 (second compound 0.000949 µM) was 6.46, the pIC50 (second compound 0.003 µM) was 7.05 and the pIC50 (second compound 0.00949 µM) was greater than 7.50. The pIC50 (second compound 0.03 µM) was greater than 7.50, the pIC50 (second compound 0.0949 µM) was greater than 7.50 and the pIC50 (second compound 0.3 µM) was greater than 7.50. It also gave a viability, T/C [3] of 97.7%, a viability, T/C [4] of 86.3% and a viability, T/C [5] of 48.7%. For the same compound, the viability, T/C [6] was 27.3%, the viability, T/C (second compound 0.000949 µM, first compound 3.16 µM) was 14.1% and the viability, T/C (second compound 0.000949 µM, first compound 10 µM) was 7.59%. It also gave a viability, T/C [9] of 81.8%, a viability, T/C [10] of 46.6% and a viability, T/C [11] of 16.8%. For the same compound, the viability, T/C [12] was 8.63%, the viability, T/C (second compound 0.003 µM, first compound 3.16 µM) was 3.59% and the viability, T/C (second compound 0.003 µM, first compound 10 µM) was 2.34%. It also gave a viability, T/C [15] of 28%, a viability, T/C [16] of 14.8% and a viability, T/C [17] of 4.68%. The viability, T/C [18] was 2.07%, the viability, T/C (second compound 0.00949 µM, first compound 3.16 µM) was 1.18% and the viability, T/C (second compound 0.00949 µM, first compound 10 µM) was 0.72%. For the same compound, the viability, T/C [21] was 8.29%, the viability, T/C [22] was 4.59% and the viability, T/C [23] was 1.59%. The viability, T/C [24] was 0.91%, the viability, T/C (second compound 0.03 µM, first compound 3.16 µM) was 0.49% and the viability, T/C (second compound 0.03 µM, first compound 10 µM) was 0.23%. For the same compound, the viability, T/C [27] was 4.51%, the viability, T/C [28] was 2.41% and the viability, T/C [29] was 1.01%. The viability, T/C [30] was 0.59%, the viability, T/C (second compound 0.0949 µM, first compound 3.16 µM) was 0.45% and the viability, T/C (second compound 0.0949 µM, first compound 10 µM) was 0.24%. For the same compound, the viability, T/C [33] was 3.65%, the viability, T/C [34] was 2.08% and the viability, T/C [35] was 0.89%. It also gave a viability, T/C [36] of 0.55%, a viability, T/C (second compound 0.3 µM, first compound 3.16 µM) of 0.35% and a viability, T/C (second compound 0.3 µM, first compound 10 µM) of 0.29%.

Compound `O=C(c1ccc(F)c(F)c1Nc1ccc(I)cc1F)N1CC(O)([C@@H]2CCCCN2)C1` + CCn1c(-c2cc(N3CCN(C)CC3)cnc2C(C)OC)c2c3cc(ccc31)-c1csc(n1)CC(NC(=O)C1CC1C)C(=O)N1CCCC(N1)C(=O)OCC(C)(C)C2 has a pIC50 (second compound 0.000949 µM) of 7.19, a pIC50 (second compound 0.003 µM) of 7.50 and a pIC50 (second compound 0.00949 µM) greater than 8.50. For the same compound, the pIC50 (second compound 0.03 µM) was greater than 8.50, the pIC50 (second compound 0.0949 µM) was greater than 8.50 and the pIC50 (second compound 0.3 µM) was greater than 8.50. For the same compound, the viability, T/C [1] was 92.7%, the viability, T/C [2] was 89.7% and the viability, T/C [3] was 83%. It also gave a viability, T/C [4] of 29.1%, a viability, T/C [5] of 8.1% and a viability, T/C [6] of 4.25%. For the same compound, the viability, T/C [7] was 114%, the viability, T/C [8] was 97.8% and the viability, T/C [9] was 47.8%. It also gave a viability, T/C [10] of 18.8%, a viability, T/C [11] of 6.27% and a viability, T/C [12] of 3.79%. The viability, T/C [13] was 43.6%, the viability, T/C [14] was 30.6% and the viability, T/C [15] was 13.6%. For the same compound, the viability, T/C [16] was 7.57%, the viability, T/C [17] was 4.59% and the viability, T/C [18] was 3.19%. It also gave a viability, T/C [19] of 14.9%, a viability, T/C [20] of 9.48% and a viability, T/C [21] of 6.73%. For the same compound, the viability, T/C [22] was 3.92%, the viability, T/C [23] was 3.2% and the viability, T/C [24] was 2.56%. For the same compound, the viability, T/C [25] was 6.07%, the viability, T/C [26] was 5.43% and the viability, T/C [27] was 4.04%. It also gave a viability, T/C [28] of 2.64%, a viability, T/C [29] of 2.57% and a viability, T/C [30] of 2.4%. It also gave a viability, T/C [31] of 5%, a viability, T/C [32] of 4.75% and a viability, T/C [33] of 2.99%. The viability, T/C [34] was 2.73%, the viability, T/C [35] was 2.91% and the viability, T/C [36] was 2.4%.
